Tests used:
BRD4-BD1 (44-164) = BRD4-BD1 (44-164) (Homo sapiens (Human), UniProt O60885); assay: Alphascreen binding assay BRD4-BD1; settings: BRD4(1) H4; read-out: Biochemical activity (IC50 μM) BRD4(1) H4
Procedure, shortened: (§1)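 In this competition format, compounds displace a biotinylated tetra-acetyl H4 peptide from E. coli-expressed human BRD4 bromodomain constructs captured on nickel chelate beads. The reaction runs at pH 7.5 with 2 mM DTT and detergent for 1 h at room temperature before a 30 min bead step.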

bromodomain = assay: at least one of the bromodomain cell assays of Example 57; format: cell-based; settings: at least one of the bromodomain cell assays described in Example 57; read-out: IC50 in at least one of the bromodomain cell assays
BRD4-BD12 (1-477) = BRD4-BD12 (1-477) (Homo sapiens (Human), UniProt O60885); assay: Alphascreen binding assay BRD4-BD12; settings: BRD4(1 2) H4; read-out: Biochemical activity (IC50 μM) BRD4(1 2) H4
Procedure, shortened: as §1

MV-4-11 cells = assay: Oncology cell growth assay MV-4-11 (CellTiter Glo); format: cell-based; settings: Homo sapiens, MV4-11, 72 h; read-out: Cell activity (IC50 μM) MV-4-11 3d-Growth
Procedure, shortened: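 Growth read by CellTiter Glo luminescence after 72 h compound treatment of MLL-AF4-bearing MV-4-11 cells (3000/well). Titration: 8 points, 1:3 steps, maximum 10 μM, 0.2% DMSO final. Data normalized to DMSO wells, four-parameter fit gives pIC50.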

Compound	IC50 (BRD4-BD1 (44-164)) [µM]	IC50 (bromodomain) [nM]	IC50 (BRD4-BD12 (1-477)) [µM]	IC50 (MV-4-11 cells) [µM]
Cc1noc(C)c1-c1cnc2c(-c3cnn(C)c3)cn(Cc3ccccc3)c2c1 [P-0327, 4-[1-benzyl-3-(1-methylpyrazol-4-yl)pyrrolo[3,2-b]pyridin-6-yl]-3,5-dimethyl-isoxazole]	< 1	< 10000	< 1	< 1
Cc1noc(C)c1-c1cnc2c(-c3cnn(C(F)F)c3)cn(C(CC#N)C3CCOCC3)c2c1 (stereo not drawn) [P-0314, 3-[3-[1-(difluoromethyl)pyrazol-4-yl]-6-(3,5-dimethylisoxazol-4-yl)pyrrolo[3,2-b]pyridin-1-yl]-3-tetrahydropyran-4-yl-propanenitrile]	< 1	< 10000	< 1	< 1
Cc1noc(C)c1-c1cnc2c(-c3cnc(N)nc3)cn(C(C)c3ccccc3)c2c1 (stereo not drawn) [P-0277, 5-[6-(3,5-dimethylisoxazol-4-yl)-1-(1-phenylethyl)pyrrolo[3,2-b]pyridin-3-yl]pyrimidin-2-amine]	< 1	< 10000	< 1	< 1
Cc1noc(C)c1-c1cnc2c(-c3ccc(=O)n(C)c3)cn(C(C)c3ccccc3)c2c1 (stereo not drawn) [P-0274, 5-[6-(3,5-dimethylisoxazol-4-yl)-1-(1-phenylethyl)pyrrolo[3,2-b]pyridin-3-yl]-1-methyl-pyridin-2-one]	< 1	< 10000	< 1	< 1
Cc1noc(C)c1-c1cnc2c(-c3ccc(Cl)cc3)cn(C(C)c3ccccc3)c2c1 (stereo not drawn) [P-0269, 4-[3-(4-chlorophenyl)-1-(1-phenylethyl)pyrrolo[3,2-b]pyridin-6-yl]-3,5-dimethyl-isoxazole]	< 1	< 10000	< 1	1 to 10
Cc1ccc(-c2cnc3ccn(CC4CCC(F)(F)CC4)c3c2)cn1 [P-0313, 1-[(4,4-difluorocyclohexyl)methyl]-6-(6-methyl-3-pyridyl)pyrrolo[3,2-b]pyridine]	10 to 200	< 10000	< 1	10 to 200
Cc1noc(C)c1-c1cnc2c(Cl)cn(C(CC#N)C3CC3)c2c1 (stereo not drawn) [P-0307, 3-[3-chloro-6-(3,5-dimethylisoxazol-4-yl)pyrrolo[3,2-b]pyridin-1-yl]-3-cyclopropyl-propanenitrile]	< 1	< 10000	< 1	1 to 10
Cc1noc(C)c1-c1cnc2c(I)cn(CC3CC(F)(F)C3)c2c1 [P-0303, 4-[1-[(3,3-difluorocyclobutyl)methyl]-3-iodo-pyrrolo[3,2-b]pyridin-6-yl]-3,5-dimethyl-isoxazole]	< 1	< 10000	< 1	< 1
Cc1noc(C)c1-c1cnc2c(-c3cnn(CCN4CCOCC4)c3)cn(CC3CCC(F)(F)CC3)c2c1 [P-0296, 4-[2-[4-[1-[(4,4-difluorocyclohexyl)methyl]-6-(3,5-dimethylisoxazol-4-yl)pyrrolo[3,2-b]pyridin-3-yl]pyrazol-1-yl]ethyl]morpholine]	< 1	< 10000	< 1	< 1
Cc1noc(N)c1-c1cnc2ccn(CC3CCC(F)(F)CC3)c2c1 [P-0328, 4-[1-[(4,4-difluorocyclohexyl)methyl]pyrrolo[3,2-b]pyridin-6-yl]-3-methyl-isoxazol-5-amine]	< 1	< 10000	< 1	1 to 10
Cc1noc(C)c1-c1cnc2c(I)cn(Cc3ncccn3)c2c1 [P-0319, 4-[3-iodo-1-(pyrimidin-2-ylmethyl)pyrrolo[3,2-b]pyridin-6-yl]-3,5-dimethyl-isoxazole]	< 1	< 10000	< 1	< 1
COc1ccc(-c2cn(C(C)c3ccccc3)c3cc(-c4c(C)noc4C)cnc23)cn1 (stereo not drawn) [P-0271, 4-[3-(6-methoxy-3-pyridyl)-1-(1-phenylethyl)pyrrolo[3,2-b]pyridin-6-yl]-3,5-dimethyl-isoxazole]	< 1	< 10000	< 1	< 1
Cc1noc(C)c1-c1cnc2c(Cl)cn(C(CC#N)C3CCCC3)c2c1 (stereo not drawn) [P-0290, 3-[3-chloro-6-(3,5-dimethylisoxazol-4-yl)pyrrolo[3,2-b]pyridin-1-yl]-3-cyclopentyl-propanenitrile]	< 1	< 10000	< 1	< 1
[2H]C([2H])(C1CCC(F)(F)CC1)n1cc(I)c2ncc(-c3c(C)noc3C)cc21 [P-0262, 4-[1-[dideuterio-(4,4-difluorocyclohexyl)methyl]-3-iodo-pyrrolo[3,2-b]pyridin-6-yl]-3,5-dimethyl-isoxazole]	< 1	< 10000	< 1	< 1
Cc1noc(C)c1-c1cnc2c(-c3cnc(N)cn3)cn(C(C)c3ccccc3)c2c1 (stereo not drawn) [P-0279, 5-[6-(3,5-dimethylisoxazol-4-yl)-1-(1-phenylethyl)pyrrolo[3,2-b]pyridin-3-yl]pyrazin-2-amine]	< 1	< 10000	< 1	< 1
Cc1noc(C)c1-c1cnc2c(-c3cnn(C(F)F)c3)cn(CC3CC(F)(F)C3)c2c1 [P-0304]	< 1	< 10000	< 1	< 1
Cc1noc(C)c1-c1cnc2c(-c3ccc(C(=O)O)cc3)cn(S(=O)(=O)c3ccccc3)c2c1 [P-0371, 4-[1-(benzenesulfonyl)-6-(3,5-dimethylisoxazol-4-yl)pyrrolo[3,2-b]pyridin-3-yl]benzoic acid]	< 1	< 10000	< 1	< 1
Cc1noc(C)c1-c1cnc2c(Cl)cn(CC3CCC(F)(F)CC3)c2c1 [P-0306, 4-[3-chloro-1-[(4,4-difIuorocyclohexyl)methyl]pyrrolo[3,2-b]pyridin-6-yl]-3,5-dimethyl-isoxazole]	< 1	< 10000	< 1	< 1
Cc1noc(C)c1-c1cnc2c(-c3cnn(C)c3)cn(C(CC#N)c3ccccc3)c2c1 (stereo not drawn) [P-0331, 3-[6-(3,5-dimethylisoxazol-4-yl)-3-(1-methylpyrazol-4-yl)pyrrolo[3,2-b]pyridin-1-yl]-3-phenyl-propanenitrile]	< 1	< 10000	< 1	< 1
COc1ncc(-c2cn(C(C)c3ccccc3)c3cc(-c4c(C)noc4C)cnc23)cn1 (stereo not drawn) [P-0275, 4-[3-(2-methoxypyrimidin-5-yl)-1-(1-phenylethyl)pyrrolo[3,2-b]pyridin-6-yl]-3,5-dimethyl-isoxazole]	< 1	< 10000	< 1	< 1
Cc1noc(C)c1-c1cnc2c(I)cn(Cc3ccccn3)c2c1 [P-0333, 4-[3-iodo-1-(2-pyridylmethyl)pyrrolo[3,2-b]pyridin-6-yl]-3,5-dimethyl-isoxazole]	< 1	< 10000	< 1	< 1
Cc1noc(C)c1-c1cnc2c(-c3cnn(CC(F)(F)F)c3)c[nH]c2c1 [P-0265, 3,5-dimethyl-4-[3-[1-(2,2,2-trifluoroethyl)pyrazol-4-yl]-1H-pyrrolo[3,2-b]pyridin-6-yl]isoxazole]	< 1	< 10000	< 1	< 1
Cc1c(-c2cnc3ccn(CC4CCC(F)(F)CC4)c3c2)cnn1C [P-0293, l-[(4,4-difluorocyclohexyl)methyl]-6-(1,5-dimethylpyrazol-4-yl)pyrrolo[3,2-b]pyridine]	10 to 200	< 10000	10 to 200	10 to 200
Cc1nnn(C)c1-c1cnc2c(-c3cnn(CC(F)(F)F)c3)cn(CC3(F)CCC(F)(F)CC3)c2c1 [P-0372, 6-(3,5-dimethyltriazol-4-yl)-1-[(1,4,4-trifluorocyclohexyl)methyl]-3-[1-(2,2,2-trifluoroethyl)pyrazol-4-yl]pyrrolo[3,2-b]pyridine]	< 1	< 10000	< 1	< 1
Cc1noc(C)c1-c1cnc2c(-c3cnn(CC(F)(F)F)c3)cn(C(C)c3ccccn3)c2c1 (stereo not drawn) [P-0320, 3,5-dimethyl-4-[1-[1-(2-pyridyl)ethyl]-3-[1-(2,2,2-trifluoroethyl)pyrazol-4-yl]pyrrolo[3,2-b]pyridin-6-yl]isoxazole]	< 1	< 10000	< 1	< 1
Cc1nnc(CCl)n1-c1cnc2[nH]ccc2c1 [P-0322, 5-[3-(chloromethyl)-5-methyl-1,2,4-triazol-4-yl]-1H-pyrrolo[2,3-b]pyridine]	10 to 200	< 10000	10 to 200	1 to 10
Cc1nnn(C)c1-c1cnc2c(-c3cnn(C)c3)cn(CC3CCC(F)(F)CC3)c2c1 [P-0310, 1-[(4,4-difluorocyclohexyl)methyl]-6-(3,5-dimethyltriazol-4-yl)-3-(1-methylpyrazol-4-yl)pyrrolo[3,2-b]pyridine]	< 1	< 10000	< 1	< 1

— patent publication US10519177B2, “Heterocyclic compounds and uses thereof” (Plexxikon Inc., priority 2013, dated 2019)
